Source: patent US20020034767A1, “Compositions and methods for modulating the activity of G protein-coupled receptor kinases GRK5 and GRK6” (priority 1993, published 2002)
Several values for one entry are separate records, joined by “and”; a condition that tells them apart may be missing. Equal entries are not always repeated. Blank lines part the entries; values can stand above or below the compound they belong to.

Columns and labels:
GRK6 = molecular target: T1, GRK6 (Homo sapiens, UniProt P43250); experiment: GRK6 phosphorylation of rhodopsin; format: biochemical; conditions: for effect on GRK6 activity: in the presence of Mg2+; for IC50: purified GRK6, read-out: IC50 for inhibiting GRK6; for fold less effective as inhibitor of GRK6 compared to GRK5: GRK6 versus GRK5
T1 construct: The presence of the full length GRK6 cDNA within the genome of the recombinant baculovirus was confirmed; made in house; host or cells: Sf9 insect cells (baculovirus, pBacPAK1)

GRK5 [1] = molecular target: T2, GRK5 (Homo sapiens, UniProt P34947); experiment: GRK5 phosphorylation of rhodopsin (receptor phosphorylation); format: biochemical; conditions: purified GRK5; read-out: IC50 for inhibiting GRK5
T2 construct: The GRK5 ORF was initially excised by restriction digestion of the full length clone pGRK5 using NaeI and SmaI; made in house; host or cells: Sf9 insect cells (baculovirus, pBacPAK1)

GRK5 [2] = molecular target: T2, GRK5; experiment: as above; format: biochemical; conditions: for reversal of heparin inhibition of GRK5: in presence of heparin
Protocol: Rod outer segments (ROS) were prepared in accordance with methods known to those skilled in the art. Rhodopsin kinase free membranes were prepared by suspending the ROS in 50 mM Tris-HCl, pH 8.0, 5 mM EDTA, 5M urea and sonicating. The urea treated ROS were washed several times by centrifugation and resuspended in 50 mM Tris-HCl, pH 7.5 at a protein concentration of ˜1 mg/ml. Phosphorylation reactions contained 5 μg of total protein from the Sf9 cell supernatants expressing either GRK5 or βARK, urea treated ROS (80 pmol rhodopsin), 20 mM Tris-HCl, pH 7.5, 2 mM EDTA, 6 mM MgCl2 and 0.1 mM [γ-^32P] ATP, in a total reaction volume of 30 μl. When the effect of G protein βγ subunits was assessed, the reactions also contained 0.25 mM dithiothreitol, 0.01% Lubrol and 62 mM NaCl with or without 100 nM βγ subunits. Reactions were incubated at 30° C. for 15 minutes and then stopped by the addition of 50 μl of SDS sample buffer. Samples were electrophoresed on a 10% homogeneous SDS polyacrylamide gel by the method of Laemmli which is well known to those skilled in the art. Gels were dried and autoradiographed at room temperature for 30-120 minutes. The rhodopsin bands in the gel were then cut and counted in a scintillation counter.

GRK5 [3] = molecular target: T2, GRK5; experiment: GRK5 autophosphorylation; format: biochemical
βARK = molecular target: T3, βARK (Bos taurus, UniProt P21146); conditions: cited from earlier work
T3 sequence (P21146 1-689): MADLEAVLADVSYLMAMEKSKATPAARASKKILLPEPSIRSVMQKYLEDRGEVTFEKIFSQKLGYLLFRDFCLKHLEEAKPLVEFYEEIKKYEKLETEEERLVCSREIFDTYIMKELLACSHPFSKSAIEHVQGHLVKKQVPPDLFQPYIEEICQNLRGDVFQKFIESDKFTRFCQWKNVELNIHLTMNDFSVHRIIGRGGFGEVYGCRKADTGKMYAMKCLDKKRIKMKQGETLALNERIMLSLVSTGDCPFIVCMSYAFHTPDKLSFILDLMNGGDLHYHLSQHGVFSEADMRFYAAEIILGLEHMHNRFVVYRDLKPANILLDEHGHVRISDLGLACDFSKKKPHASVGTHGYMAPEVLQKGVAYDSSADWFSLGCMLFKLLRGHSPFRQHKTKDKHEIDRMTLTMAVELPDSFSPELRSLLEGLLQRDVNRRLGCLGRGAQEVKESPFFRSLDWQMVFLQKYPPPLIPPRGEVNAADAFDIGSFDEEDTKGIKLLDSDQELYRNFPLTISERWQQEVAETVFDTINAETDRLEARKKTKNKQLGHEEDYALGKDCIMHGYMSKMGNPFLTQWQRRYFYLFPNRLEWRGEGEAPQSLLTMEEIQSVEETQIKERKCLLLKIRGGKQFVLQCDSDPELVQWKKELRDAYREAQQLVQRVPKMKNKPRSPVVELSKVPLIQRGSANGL

casein kinase II = casein kinase II (Homo sapiens, UniProt P67870+P68400); conditions: cited from earlier work
rhodopsin kinase = molecular target: T4, rhodopsin kinase (Bos taurus, UniProt P28327); conditions: cited from earlier work
T4 sequence (P28327 1-561): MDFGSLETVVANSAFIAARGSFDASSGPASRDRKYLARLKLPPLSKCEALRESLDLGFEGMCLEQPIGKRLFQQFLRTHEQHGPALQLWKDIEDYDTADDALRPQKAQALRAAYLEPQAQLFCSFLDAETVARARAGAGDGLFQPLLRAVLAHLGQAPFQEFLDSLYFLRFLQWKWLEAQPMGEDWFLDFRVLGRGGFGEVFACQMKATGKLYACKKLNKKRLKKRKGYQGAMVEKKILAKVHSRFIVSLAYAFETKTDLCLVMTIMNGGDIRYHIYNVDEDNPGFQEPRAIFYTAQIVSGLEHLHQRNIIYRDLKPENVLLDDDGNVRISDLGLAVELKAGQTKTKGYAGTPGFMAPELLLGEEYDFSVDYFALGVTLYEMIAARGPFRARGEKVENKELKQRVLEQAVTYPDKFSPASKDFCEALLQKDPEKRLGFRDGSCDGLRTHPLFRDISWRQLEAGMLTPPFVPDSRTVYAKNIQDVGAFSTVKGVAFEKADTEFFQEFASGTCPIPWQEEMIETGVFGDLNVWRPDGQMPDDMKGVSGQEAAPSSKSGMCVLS

T1 sequence (P43250 whole entry): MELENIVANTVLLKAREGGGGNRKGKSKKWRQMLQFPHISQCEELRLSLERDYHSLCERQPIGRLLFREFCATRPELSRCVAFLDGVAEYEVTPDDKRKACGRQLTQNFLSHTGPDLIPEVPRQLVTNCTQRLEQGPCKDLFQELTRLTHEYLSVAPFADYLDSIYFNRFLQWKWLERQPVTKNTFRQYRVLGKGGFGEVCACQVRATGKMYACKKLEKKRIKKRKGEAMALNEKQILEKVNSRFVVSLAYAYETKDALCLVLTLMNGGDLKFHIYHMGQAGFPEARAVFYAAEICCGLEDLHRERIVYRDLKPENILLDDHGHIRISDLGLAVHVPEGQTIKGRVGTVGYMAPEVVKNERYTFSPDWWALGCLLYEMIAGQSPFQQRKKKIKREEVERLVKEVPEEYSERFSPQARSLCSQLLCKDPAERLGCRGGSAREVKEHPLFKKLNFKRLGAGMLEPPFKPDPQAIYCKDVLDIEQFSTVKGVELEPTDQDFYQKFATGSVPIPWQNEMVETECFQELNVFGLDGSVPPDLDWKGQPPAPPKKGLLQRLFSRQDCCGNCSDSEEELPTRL
T2 sequence (P34947 whole entry): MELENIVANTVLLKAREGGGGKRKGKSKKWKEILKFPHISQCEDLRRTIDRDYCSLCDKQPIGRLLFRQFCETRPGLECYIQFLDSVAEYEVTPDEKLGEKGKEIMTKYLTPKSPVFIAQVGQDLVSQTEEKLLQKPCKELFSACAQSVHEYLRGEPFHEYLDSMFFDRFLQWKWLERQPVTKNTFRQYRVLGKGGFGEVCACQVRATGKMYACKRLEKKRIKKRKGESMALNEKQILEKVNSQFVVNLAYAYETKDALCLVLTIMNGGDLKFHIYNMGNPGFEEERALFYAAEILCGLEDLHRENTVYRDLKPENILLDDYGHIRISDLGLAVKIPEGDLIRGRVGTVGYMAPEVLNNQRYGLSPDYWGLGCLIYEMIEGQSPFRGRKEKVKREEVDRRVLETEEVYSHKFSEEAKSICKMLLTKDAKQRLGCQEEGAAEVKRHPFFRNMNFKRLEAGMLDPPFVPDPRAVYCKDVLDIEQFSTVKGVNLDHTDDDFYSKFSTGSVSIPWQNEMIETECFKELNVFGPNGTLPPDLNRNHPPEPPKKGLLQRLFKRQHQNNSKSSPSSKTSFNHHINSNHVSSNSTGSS
Chain of casein kinase II (P68400 whole entry): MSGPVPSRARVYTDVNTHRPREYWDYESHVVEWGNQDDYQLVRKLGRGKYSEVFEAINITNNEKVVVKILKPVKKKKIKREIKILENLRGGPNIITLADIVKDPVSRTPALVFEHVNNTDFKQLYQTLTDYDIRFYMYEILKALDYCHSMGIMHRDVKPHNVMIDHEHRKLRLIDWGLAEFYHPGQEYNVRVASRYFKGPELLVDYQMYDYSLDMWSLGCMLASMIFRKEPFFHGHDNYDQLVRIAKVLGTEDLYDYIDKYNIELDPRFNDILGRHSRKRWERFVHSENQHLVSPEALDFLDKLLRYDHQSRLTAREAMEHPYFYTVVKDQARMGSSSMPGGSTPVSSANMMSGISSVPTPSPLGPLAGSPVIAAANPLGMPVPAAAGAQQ
Chain of casein kinase II (P67870 whole entry): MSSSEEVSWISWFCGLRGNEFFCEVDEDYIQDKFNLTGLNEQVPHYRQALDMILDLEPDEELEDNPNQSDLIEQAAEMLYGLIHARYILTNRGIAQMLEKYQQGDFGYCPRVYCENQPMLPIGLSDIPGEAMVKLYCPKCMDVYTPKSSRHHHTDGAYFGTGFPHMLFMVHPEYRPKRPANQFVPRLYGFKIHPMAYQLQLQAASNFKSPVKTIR

Compound: [Ca+2] [Ca^2+]
effect on GRK6 activity (GRK6): inhibited

Compound: Cl [NaCl]
IC50 (GRK5 [2]; IC50 for inhibiting GRK5 (receptor phosphorylation), purified GRK5): ~60000 µM and 58000 µM
IC50 (GRK5 [3]): ~70000 µM

Compound: dextran sulfate
IC50 (GRK6): 0.007 µM
IC50 (GRK5 [1]): ~0.0006 µM

Compound: polyaspartic acid
fold less effective as inhibitor of GRK6 compared to GRK5 (GRK6): ~6 fold
IC50 (GRK6): 0.487 µM

Compound: polyglutamic acid
fold less effective as inhibitor of GRK6 compared to GRK5 (GRK6): ~16 fold
IC50 (GRK6): 0.4 µM

Compound: polylysine
reversal of heparin inhibition of GRK5 (GRK5 [2]): effectively reversed
activation of GRK5 (GRK5 [2]; optimal concentration of 10 μM): ~2.6 fold
increase in GRK6 phosphorylation (GRK6; optimal range 1 to 10 μM): ~2.7 fold
inhibition of βARK (βARK): weak inhibitors
effect on casein kinase (casein kinase II): activators
effect on rhodopsin kinase (rhodopsin kinase): activators

More lines, main results first:

IC50 (GRK5 [1]): ~170 µM
Compound: CC1CNCCN1S(=O)(=O)c1cccc2cnccc12 (stereo not drawn) [H-7]

effect on GRK6 activity (GRK6): inhibited
Compound: [Zn+2] [Zn^2+]

reversal of heparin inhibition of GRK5 (GRK5 [2]): effectively reversed
activation of GRK5 (GRK5 [2]; optimal concentrations): ~1.5 fold
enhancement of GRK6 activity (GRK6; optimal concentration range 0.1 to 0.5 mM): ~1.4 fold
Compound: NCCCCNCCCN [spermidine]
inhibition of βARK (βARK): weak inhibitors
effect on casein kinase (casein kinase II): activators
effect on rhodopsin kinase (rhodopsin kinase): activators

reversal of heparin inhibition of GRK5 (GRK5 [2]): effectively reversed
activation of GRK5 (GRK5 [2]; optimal concentrations): ~1.8 fold
elevation of GRK6 phosphorylation of rhodopsin (GRK6; optimal concentration range 0.01 to 0.1 mM): ~1.5 fold
Compound: NCCCNCCCCNCCCN [spermine]
inhibition of βARK (βARK): weak inhibitors
effect on casein kinase (casein kinase II): activators
effect on rhodopsin kinase (rhodopsin kinase): activators

IC50 (GRK6): ~0.015 µM
inhibition of GRK5 autophosphorylation (GRK5 [3]; concentration of 10 μM): does not inhibit
IC50 (GRK5 [1]): ~0.001 µM
Compound: heparin
IC50 (rhodopsin kinase): ~200 µM
